Assay results taken from patent publication US12264148B2, “Ivosidenib forms and pharmaceutical compositions” (Servier Pharmaceuticals LLC, priority 2018, dated 2025).
In brackets after ≈: the same amount, converted by molar mass.

Experiments:
[1] = system: bacterial reverse mutation; conditions: Registered substances; cited from earlier work
[2] = system: bacterial reverse mutation; experiment: In vitro bacterial reverse mutation assay (Ames)
[3] = system: mutant IDH2 (mIDH2); conditions: tool compound; Rohle et al. Science 2013; cited from earlier work
[4] = system: mIDH1-driven gliomas; conditions: some model systems; Rohle et al. Science 2013; cited from earlier work
[5] = system: mutant IDH1 (mIDH1); conditions: cited from earlier work
[6] = Dissolution of 250 mg tablets spiked with crystalline form, Medium A (pH 6.8, 0.6% SDS); format: physicochemical; conditions: 250 mg tablets vs target (nominal) formulation
Text: (§1) In order to assess the impact of crystalline polymorphic forms on dissolution profiles, variant tablets were manufactured with SDI spiked with drug substance of two different crystalline polymorphs: Form B, and Form L, which forms are as described above. As used herein, the term “spiked” or “spiking” is used consistently with usage in the field of pharmaceutical manufacturing, namely the introduction of a particular form to the crystallization solution to encourage nucleation and growth. These forms were selected because it was determined that if an SDI should crystallize, these two forms would be most likely to be present. However, it is noted that the SDI can be reliably made in completely amorphous form, with no detectable crystalline form present even under stressed conditions.
250 mg tables were manufactured by adding 50 mg (20% w/w) of crystalline Form L or Form B with the ivosidenib SDI (therefore, amorphous SDI was present at 80% w/w as a measure of the active ingredient.) […]
Similar dissolution studies were undertaken with Medium B (pH 6.8, 0.4% SDS). Similarity factors (f2) were calculated to assess the dissolution profiles, compared to a target formulation. […]

[7] = Dissolution of 250 mg tablets spiked with crystalline form, Medium B (pH 6.8, 0.4% SDS); format: physicochemical; conditions: 250 mg tablets vs target (nominal) formulation
Text: as §1
250 mg tables were manufactured by adding 50 mg (20% w/w) of crystalline Form L or Form B with the ivosidenib SDI (therefore, amorphous SDI was present at 80% w/w as a measure of the active ingredient.)
Similar dissolution studies were undertaken with Medium B (pH 6.8, 0.4% SDS). Similarity factors (f2) were calculated to assess the dissolution profiles, compared to a target formulation. The similarity factors are included in Table 21.

[8] = Solubility of solid state forms in methanol; format: physicochemical
[9] = Solubility in 5:95 v/v iPrOAc:heptane slurry; format: physicochemical; conditions: remained a thick slurry
[10] = Competitive slurries of Form L, Form M and Form N; format: physicochemical; conditions: Form L, N in dichloromethane, heptane, tBME, acetone, ambient or 35/50 °C
Description: The temperature was increased to 70° C. to dissolve material. Anti-solvent addition (60 mL heptane) at 60 mL/h was carried out at 70° C. Once the anti-solvent addition was complete, the reaction was cooled to 60° C. and seeded with 0.63 g of Form B ivosidenib, which was stirred at 60° C. for 4 h then cooled to 15° C. over 10 h. An anti-solvent addition was started (308 mL heptane) at 75 mL/h, 15° C., 200 rpm. When the anti-solvent addition finished, the mixture was stirred at 15° C. for 2 h then isolated solid through filtration using a Buchner funnel (120 mm Ø) and washed with 246 mL of iPrOAc:heptane (1:1 v/v). In isopropyl acetate:heptane 5:95 v/v, Form N was retained, while in isopropyl acetate:heptane 20:80 v/v, a mixture of Form B and Form N was obtained.
The following procedure was followed for competitive slurry trials of the Form L, Form M, and Form N polymorphs: Approximately 50 or 75 mg of each different solid form was weighed out into 1.5 mL screw-cap vials. […]
Aliquots (100 μL or 25 μL) of appropriate solvent added as required to obtain a mobile slurry which was then stirred at either ambient (ca. 23° C.) or elevated (35 or 50° C.) temperature for ca. 21 or 68.5 h (see Table 4 for details). Solids were isolated solid by centrifugation and analyzed by XRPD. […]

[11] = potential impurities of ivosidenib drug substance; cited from earlier work
[12] = system: mutant IDH1 proteins; conditions: U.S. Publication No. 2013/0190249 A1; cited from earlier work
[13] = Approximate solubility of ivosidenib freebase in 20 solvent systems at RT; format: physicochemical
Description: Approximate solubility of ivosidenib freebase was determined in 20 solvent systems at RT. In the experiment, ˜2 mg of ivosidenib was added into a 3-mL glass vial, followed by the addition of corresponding solvent. The solvent was added by 100 μL step wise until the solution was visually clear or a total volume of 2 mL was reached. This solubility information was used to select solvents for the polymorph screening.

Clc1ccccc1C(Cl)Cl [1-chloro-2-(dichloromethyl)benzene]
Ames result reported by ECHA [1]: Ames-negative

ClCc1ccccc1Cl [2-chlorobenzyl chloride]
Ames result reported by ECHA [1]: Ames-negative

Fc1cncc(/N=C/c2ccccc2Cl)c1 [(E)-1-(2-chlorophenyl)-N-(5-fluoropyridin-3-yl) methanimine]
Ames test result [2]: negative

Cc1ccccc1C(C(=O)NC1CCCCC1)N(C(=O)Cn1ccnc1C)c1cccc(F)c1 (stereo not drawn) [AGI-5198]
inhibition of mutant IDH2 [3]: not mutant IDH2 (mIDH2) | growth of mIDH1-driven gliomas [4]: repress growth | inhibition of mutant IDH1 ([5]; tool compound, Rohle et al. Science 2013): inhibit mutant IDH1 (mIDH1)

N#Cc1ccnc(N2C(=O)CC[C@H]2C(=O)N(c2cncc(F)c2)[C@H](C(=O)NC2CC(F)(F)C2)c2ccccc2Cl)c1 [Form B]
Similarity factor (f2) result for dissolution medium A [6]: 26.0 | Similarity factor (f2) result for dissolution medium B [7]: 43.1

N#Cc1ccnc(N2C(=O)CC[C@H]2C(=O)N(c2cncc(F)c2)[C@H](C(=O)NC2CC(F)(F)C2)c2ccccc2Cl)c1 [Form L]
Similarity factor (f2) result for dissolution medium A [6]: 28.9 | Similarity factor (f2) result for dissolution medium B [7]: 48.5

N#Cc1ccnc(N2C(=O)CC[C@H]2C(=O)N(c2cncc(F)c2)[C@H](C(=O)NC2CC(F)(F)C2)c2ccccc2Cl)c1 [Form M]
solubility in methanol [8]: 109 mg/mL (≈ 187 mM) | solubility ([8]; organic solvent or mixture, thermodynamic from solid, compared with ~70 mg/mL AG-120 in the SDI spray solution, read-out: solubility): ~110 mg/mL (≈ 189 mM) | solubility in 5:95 v/v iPrOAc:heptane [9]: poorly soluble

N#Cc1ccnc(N2C(=O)CC[C@H]2C(=O)N(c2cncc(F)c2)[C@H](C(=O)NC2CC(F)(F)C2)c2ccccc2Cl)c1 [Form N]
solubility ([8]; compared with ~70 mg/mL AG-120 in the SDI spray solution): ~110 mg/mL (≈ 189 mM) | solubility ([8]; organic solvent or mixture, thermodynamic from solid, read-out: solubility in methanol): 113 mg/mL (≈ 194 mM) | most stable anhydrous form in competitive slurries [10]: stable anhydrous form | solubility in 5:95 v/v iPrOAc:heptane [9]: poorly soluble

O=Cc1ccccc1 [benzaldehyde]
mutagenicity according to literature [11]: known mutagens

c1ccccc1 [benzene]
mutagenicity according to literature [11]: known mutagens

ClCc1ccccc1 [benzyl chloride]
mutagenicity according to literature [11]: known mutagens

N#Cc1ccnc(N2C(=O)CC[C@H]2C(=O)N(c2cncc(F)c2)[C@H](C(=O)NC2CC(F)(F)C2)c2ccccc2Cl)c1 [ivosidenib, (S)—N—((S)-1-(2-Chlorophenyl)-2-(3,3-difluorocyclobutylamino)-2-oxoethyl)-1-(4-cyanopyridin-2-yl)-N-(5-fluoropyridin-3-yl)-5-oxopyrrolidine-2-carboxamide]
inhibition of mutant IDH1 proteins in cellular assays [12]: inhibitor | Solubility (mg/mL) ([13]; Acetic acid, RT): 40.4~20.2 mg/mL | Solubility (mg/mL) ([13]; DMSO, RT): 46.6~23.2 mg/mL | Solubility (mg/mL) ([13]; IPA, RT): 38.8~19.4 mg/mL | Solubility (mg/mL) ([13]; IPAC, RT): 40.2~20.1 mg/mL | Solubility (mg/mL) ([13]; MIBK, RT): 18.6~12.0 mg/mL | Solubility (mg/mL) ([13]; Toluene, RT): 18.6~12.4 mg/mL | solubility ([13]; organic solvent or mixture, thermodynamic from solid, 1,4-Dioxane, RT): > 41.6 mg/mL | solubility ([13]; organic solvent or mixture, thermodynamic from solid, 2-MeTHF, RT): > 41.4 mg/mL | solubility ([13]; organic solvent or mixture, thermodynamic from solid, ACN, RT): > 36.8 mg/mL | solubility ([13]; organic solvent or mixture, thermodynamic from solid, Acetone, RT): > 36.4 mg/mL | solubility ([13]; organic solvent or mixture, thermodynamic from solid, CHCl3, RT): > 38.2 mg/mL | solubility ([13]; organic solvent or mixture, thermodynamic from solid, DMA, RT): > 24.5 mg/mL | solubility ([13]; organic solvent or mixture, thermodynamic from solid, EtOAc, RT): > 41.8 mg/mL | solubility ([13]; organic solvent or mixture, thermodynamic from solid, EtOH, RT): > 39.4 mg/mL | solubility ([13]; organic solvent or mixture, thermodynamic from solid, Heptane, RT): < 0.95 mg/mL | solubility ([13]; organic solvent or mixture, thermodynamic from solid, MTBE, RT): > 37.8 mg/mL | solubility ([13]; organic solvent or mixture, thermodynamic from solid, MeOH, RT): > 47.6 mg/mL | solubility ([13]; organic solvent or mixture, thermodynamic from solid, NMP, RT): > 42 mg/mL | solubility ([13]; organic solvent or mixture, thermodynamic from solid, THF, RT): > 39 mg/mL | solubility ([13]; water, thermodynamic from solid, H2O, RT): < 1.26 mg/mL | inhibition of mutant IDH1 proteins in biochemical assays ([5]; U.S. Publication No. 2013/0190249 A1): inhibitor
